Assay results published in patent US20130029962A1, “Substituted Heteroaromatic Pyrazole-Containing Carboxamide and Urea Compounds as Vanilloid Receptor Ligands” (Gruenenthal GmbH, priority 2011, published 2013).

biological target: T1, vanilloid receptor 1 (VR1/TRPV1 receptor) (Homo sapiens, UniProt Q8NER1); assay: Functional testing on the vanilloid receptor 1 (VR1/TRPV1): FLIPR Ca2+ influx assay, displacement of capsaicin; assay type: cell-based, human being; set-up: key to mode of action at VR1/TRPV1 (AG, pAG, NE), Cap: AG=agonist; NE=no effect; pAG=partial agonist; conditions: 5 μM compound; capsaicin (Cap); human being; read-out: inhibition (as a percentage) at the concentration after @, Cap
T1 construct: expressed in transfected cells; host or cells: CHO K1
T1 sequence (Q8NER1 whole entry): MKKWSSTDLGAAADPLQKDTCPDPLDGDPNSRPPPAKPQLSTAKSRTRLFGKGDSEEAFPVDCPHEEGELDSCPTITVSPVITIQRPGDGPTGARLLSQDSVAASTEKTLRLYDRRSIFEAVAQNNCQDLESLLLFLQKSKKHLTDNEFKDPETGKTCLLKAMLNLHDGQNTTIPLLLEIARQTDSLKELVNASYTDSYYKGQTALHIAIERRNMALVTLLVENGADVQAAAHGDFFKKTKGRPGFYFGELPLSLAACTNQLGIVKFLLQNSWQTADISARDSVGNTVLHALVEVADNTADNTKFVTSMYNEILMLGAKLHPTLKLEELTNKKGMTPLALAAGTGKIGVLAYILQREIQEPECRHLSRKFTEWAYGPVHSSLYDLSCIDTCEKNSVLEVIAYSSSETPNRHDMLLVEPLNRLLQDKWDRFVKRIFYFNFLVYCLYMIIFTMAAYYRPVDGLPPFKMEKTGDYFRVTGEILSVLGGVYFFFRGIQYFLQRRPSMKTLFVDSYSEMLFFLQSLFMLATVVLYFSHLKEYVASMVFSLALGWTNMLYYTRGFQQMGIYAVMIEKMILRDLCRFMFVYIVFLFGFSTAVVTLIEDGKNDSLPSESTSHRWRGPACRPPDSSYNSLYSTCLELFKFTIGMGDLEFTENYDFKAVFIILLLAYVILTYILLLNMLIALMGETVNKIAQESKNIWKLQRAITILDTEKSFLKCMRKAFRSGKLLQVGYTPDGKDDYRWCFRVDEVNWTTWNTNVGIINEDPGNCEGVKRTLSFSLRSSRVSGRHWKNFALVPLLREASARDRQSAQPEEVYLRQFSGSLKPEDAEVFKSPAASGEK
Summary of the method: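 Fluo-4 FLIPR Ca2+ influx in CHO K1 cells transfected with human VR1, measuring displacement of 100 nM capsaicin; rat VR1 agonism/antagonism also assessed in rat dorsal root ganglion neurons cultured 2–3 days at 37° C with 25 ng/mL NGF, then loaded with 2 μM Fluo-4.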

**Q.** `O=C(Cc1ccncc1)NCc1cc(C(F)(F)F)nn1-c1cccc(Cl)c1` [Example 11, N-((1-(3-chlorophenyl)-3-(trifluoromethyl)-1H-pyrazol-5-yl)methyl)-2-(pyridin-4-yl)acetamide] was tested. Which inhibition at 5 µM did it give?
**A.** The inhibition at 5 µM was 79%.

**Q.** `O=C(Cc1ccccn1)NCc1cc(C(F)(F)F)nn1-c1cccc(Cl)c1` [Example 1, N-((1-(3-chlorophenyl)-3-(trifluoromethyl)-1H-pyrazol-5-yl)methyl)-2-(pyridin-2-yl)acetamide] was tested. Which inhibition at 5 µM did it give?
**A.** Its inhibition at 5 µM is 31%.

**Q.** For `O=C(NCc1cc(C(F)(F)F)nn1-c1cccc(Cl)c1)Nc1ccc(CCO)nc1` [Example 52, 1-((1-(3-chlorophenyl)-3-(trifluoromethyl)-1H-pyrazol-5-yl)methyl)-3-(6-(2-hydroxyethyl)pyridin-3-yl)urea], which inhibition at 5 µM is on record?
**A.** Its inhibition at 5 µM is 45%.

**Q.** Which inhibition at 5 µM does the source give for `CC(C(=O)NCc1cc(C(F)(F)F)nn1-c1cccc(Cl)c1)c1ccc(C(=O)Nc2ccc(C(F)(F)F)cc2)nc1` (centres unmarked) [Example 59, 5-(1-((1-(3-chlorophenyl)-3-(trifluoromethyl)-1H-pyrazol-5-yl)methylamino)-1-oxopropan-2-yl)-N-(4-(trifluoromethyl)phenyl)picolinamide] here?
**A.** Its inhibition at 5 µM is 24%.

same assay, conditions: capsaicin (Cap) as stimulus; Ki from IC50 by Cheng-Prusoff; read-out: (f) Ki (human being) [nM] Cap

**Q.** With `CC(C(=O)NCc1cc(C(F)(F)F)nn1-c1cccc(Cl)c1)c1ccc(NCCO)nc1` (centres unmarked) [Example 146, N-((1-(3-chlorophenyl)-3-(trifluoromethyl)-1H-pyrazol-5-yl)methyl)-2-(6-(2-hydroxyethylamino)pyridin-3-yl)propanamide] as the compound, how does the Ki read?
**A.** The Ki was 0.6 nM.

**Q.** For `CC(C)(C)c1cc(CNC(=O)Nc2ccccn2)n(-c2cccc(Cl)c2)n1` [Example 4, 1-((3-tert-butyl-1-(3-chlorophenyl)-1H-pyrazol-5-yl)methyl)-3-(pyridin-2-yl)urea], which Ki is on record?
**A.** Its Ki is 47 nM.

**Q.** For `CC(C(=O)NCc1cc(C(F)(F)F)nn1-c1cccc(Cl)c1)c1cnc(NS(C)(=O)=O)c(F)c1` (centres unmarked) [Example 103, N-((1-(3-chlorophenyl)-3-(trifluoromethyl)-1H-pyrazol-5-yl)methyl)-2-(5-fluoro-6-(methylsulfonamido)pyridin-3-yl)propanamide], which Ki is on record?
**A.** The Ki was 12 nM.

**Q.** How did the Ki turn out when `CN(CCO)c1ccc(NC(=O)NCc2cc(C(F)(F)F)nn2-c2cccc(Cl)c2)cn1` [Example 90, 1-((1-(3-chlorophenyl)-3-(trifluoromethyl)-1H-pyrazol-5-yl)methyl)-3-(6-((2-hydroxyethyl)(methyl)amino)pyridin-3-yl)urea] was run?
**A.** The Ki was 44 nM.

**Q.** Which Ki does the source give for `CC(C(=O)NCc1cc(C(F)(F)F)nn1-c1cccc(Cl)c1)c1ccc(CCO)nc1` (centres unmarked) [Example 51, N-((1-(3-chlorophenyl)-3-(trifluoromethyl)-1H-pyrazol-5-yl)methyl)-2-(6-(2-hydroxyethyl)pyridin-3-yl)propanamide] here?
**A.** Its Ki is 8 nM.

**Q.** `Cc1cccc(-n2nc(C(F)(F)F)cc2CNC(=O)C(C)c2ccc(CCO)nc2)c1` (centres unmarked) [Example 151, 2-(6-(2-hydroxyethyl)pyridin-3-yl)-N-((1-m-tolyl-3-(trifluoromethyl)-1H-pyrazol-5-yl)methyl)propanamide] was tested. Which Ki did it give?
**A.** Its Ki is 49 nM.

**Q.** Which Ki does the source give for `CC(C)(C)c1cc(CNC(=O)Nc2ccc(NCCO)nc2)n(-c2cccc(Cl)c2)n1` [Example 70, 1-((3-tert-butyl-1-(3-chlorophenyl)-1H-pyrazol-5-yl)methyl)-3-(6-(2-hydroxyethylamino)pyridin-3-yl)urea] here?
**A.** The Ki was 3 nM.

**Q.** `CC(C(=O)NCc1cc(C(F)(F)F)nn1-c1cccc(Cl)c1)c1ccc(CO)nc1` (centres unmarked) [Example 30, N-((1-(3-chlorophenyl)-3-(trifluoromethyl)-1H-pyrazol-5-yl)methyl)-2-(6-(hydroxymethyl)pyridin-3-yl)propanamide] was tested. Which Ki did it give?
**A.** Its Ki is 1 nM.

same assay, conditions: capsaicin (Cap); human being

**Q.** How did the “mode of action at VR1/TRPV1 (AG, pAG, NE), Cap” value turn out when `O=C(NCc1cc(C(F)(F)F)nn1-c1cccc(F)c1)Nc1ccc(C2CCOCC2)nc1` [Example 54, 1-((1-(3-fluorophenyl)-3-(trifluoromethyl)-1H-pyrazol-5-yl)methyl)-3-(6-(tetrahydro-2H-pyran-4-yl)pyridin-3-yl)urea] was run?
**A.** The value was “NE”.

**Q.** How did the “mode of action at VR1/TRPV1 (AG, pAG, NE), Cap” value turn out when `O=C(Cc1ccncc1)NCc1cc(C(F)(F)F)nn1-c1cccc(Cl)c1` [Example 11, N-((1-(3-chlorophenyl)-3-(trifluoromethyl)-1H-pyrazol-5-yl)methyl)-2-(pyridin-4-yl)acetamide] was run?
**A.** The value was “AG”.
